Experimental findings from US7368470B2, “Substituted 3-pyrrolidine-indole derivatives” (Gruenenthal GmbH, priority 2003, dated 2008) are described below.

The target in the first assay is T1, noradrenalin reuptake (NA uptake) (Rattus norvegicus, UniProt Q9WTR4).
T1 construct: These vesicular particles were isolated from the hypothalamus of male rats' brains for NA uptake; from tissue; host or cells: rat brain synaptosomes (P2 fraction; cerebral cortex / hypothalamus of male rats)
T1 sequence (Q9WTR4 1-597): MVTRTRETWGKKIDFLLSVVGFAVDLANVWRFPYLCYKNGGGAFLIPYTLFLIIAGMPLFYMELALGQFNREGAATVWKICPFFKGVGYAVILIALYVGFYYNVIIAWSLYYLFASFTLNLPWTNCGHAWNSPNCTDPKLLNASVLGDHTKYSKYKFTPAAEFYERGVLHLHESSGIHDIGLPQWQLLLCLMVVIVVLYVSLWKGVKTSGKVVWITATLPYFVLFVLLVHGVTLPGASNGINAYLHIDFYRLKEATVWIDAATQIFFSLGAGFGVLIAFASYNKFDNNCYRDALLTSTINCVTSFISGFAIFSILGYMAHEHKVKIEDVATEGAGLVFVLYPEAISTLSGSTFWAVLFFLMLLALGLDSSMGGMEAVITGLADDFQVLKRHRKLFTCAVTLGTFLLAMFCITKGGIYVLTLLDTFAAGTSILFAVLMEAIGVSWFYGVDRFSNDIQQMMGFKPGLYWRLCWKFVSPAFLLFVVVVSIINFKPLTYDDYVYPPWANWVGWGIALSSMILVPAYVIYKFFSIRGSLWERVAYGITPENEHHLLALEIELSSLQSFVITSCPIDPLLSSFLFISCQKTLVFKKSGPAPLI
The experiment in a line: Noradrenalin reuptake inhibition (NA uptake inhibition) in rat brain synaptosomes. Type of assay: biochemical. The settings on record: synaptosomes from male rats' brains. An excerpt: b) Tests on Noradrenalin Reuptake Inhibition
In order to be able to carry out these in vitro studies, synaptosomes from rats' cerebral cortices were freshly isolated. A “P2” fraction, prepared according to Gray and Whittaker's instructions (E. G. Gray and V. P. Whittaker (1962) J. Anat. 76, 79-88) was used in each case. These vesicular particles were isolated from the hypothalamus of male rats' brains for NA uptake.
A detailed description of the method may be found in the literature (M. Ch. Frink, H.-H. Hennies, W. Englberger, M. Haurand and B. Wilffert (1996) Arzneim.-Frosch./Drug Res. 46 (III), 11, 1029-1036).
As to `CCN(CC)C(=O)Cn1cc(C2CCN(CC(=O)Nc3ccc(C(F)(F)F)cc3)C2)c2ccccc21` (centres unmarked) [Compound 51, N,N-diethyl-2-(3-{1-[(4-trifluoromethyl-phenylcarbamoyl)-methyl]-pyrrolidin-3-yl}-indol-1-yl)-acetamide], testing at 10 µM gave an inhibition of 57%.

In the next assay the test system is binding site 2 of the sodium channel (batrachotoxin (BTX) binding site). The experiment in a line: Binding test on the sodium channel, binding site 2 (BTX bond), [3H]-batrachotoxinin A20 α-benzoate as ligand. Also noted: species or system rat. The settings on record: 10 μM; rat cerebrocortex synaptosomes; ligand 10 nM; 25° C., 120 min.
For the molecule `CCn1cc(C2CCN(C(=O)COc3cccc(Cl)c3)C2)c2ccccc21` (centres unmarked) [Compound 12, 2-(3-chloro-phenoxy)-1-[3-(1-ethyl-1H-indol-3-yl)-pyrrolidin-1-yl]-ethanone], the “BTX bond, % inhibition [10 μM]” value came out at 83%.
The same measure, in the same setting: next, `COc1ccc(C(=O)N2CCC(c3cn(CCC(C)C)c4ccccc34)C2)cc1OC` (centres unmarked) [Compound 2, (3,4-dimethoxy-phenyl)-{3-[1-(3-methyl-butyl)-1H-indol-3-yl]-pyrrolidin-1-yl}-methanone]: 93%; `Cc1oc(C(C)(C)C)cc1C(=O)N1CCC(c2cn(Cc3ccccc3C#N)c3ccccc23)C1` (centres unmarked) [Compound 33, 2-{3-[1-(5-tert-butyl-2-methyl-furan-3-carbonyl)pyrrolidin-3-yl]-indol-1-ylmethyl)-benzonitrile]: 89%; `CC(C)CCn1cc(C2CCN(C(=O)c3ccc(C(C)(C)C)cc3)C2)c2ccccc21` (centres unmarked) [Compound 6, (4-tert-butyl-phenyl)-{3-[1-(3-methyl-butyl)-1H-indol-3-yl]-pyrrolidin-1-yl}-methanone]: 91%.
Turning to `CCCCn1cc(C2CCN(C(=O)c3ccc(C(F)(F)F)nc3C)C2)c2ccccc21` (centres unmarked) [Compound 3], the “BTX bond, % inhibition [10 μM]” value is 93%.
On to `CC(Oc1ccccc1)C(=O)N1CCC(c2cn(Cc3ccc(C#N)cc3)c3ccccc23)C1` (centres unmarked) [Compound 13, 4-(3-[1-(2-phenoxy-propionyl)-pyrrolidin-3-yl]-indol-1-ylmethyl}-benzonitrile], for which the “BTX bond, % inhibition [10 μM]” value is reported as 82%.
With `COc1cccc(Cn2cc(C3CCN(C(=O)C(C)Oc4ccccc4)C3)c3ccccc32)c1` (centres unmarked) [Compound 11, 1-{3-[1-(3-methoxy-benzyl)-1H-indol-3-yl]-pyrrolidin-1-yl}-2-phenoxy-propan-1-one], the “BTX bond, % inhibition [10 μM]” value stood at 83%.
On to `CCCc1ccc(C(=O)N2CCC(c3cn(Cc4ccc(C(F)(F)F)cc4)c4ccccc34)C2)cc1` (centres unmarked) [Compound 1, (4-propyl-phenyl)-{3-[1-(4-trifluoromethyl-benzyl)-1H-indol-3-yl]-pyrrolidin-1-yl}-methanone], for which the “BTX bond, % inhibition [10 μM]” value was found to be 95%.
For the molecule `O=C(c1cccc(F)c1F)N1CCC(c2cn(Cc3ccc(C(F)(F)F)cc3)c3ccccc23)C1` (centres unmarked) [Compound 5, (2,3-difluoro-phenyl)-{3-[1-(4-trifluoromethyl-benzyl)-1H-indol-3-yl]-pyrrolidin-1-yl}-methanone], the “BTX bond, % inhibition [10 μM]” value is 92%.
For the molecule `COc1cccc(Cn2cc(C3CCN(C(=O)C=Cc4ccccc4)C3)c3ccccc32)c1` (centres unmarked) [Compound 4, 1-{3-[1-(3-methoxy-benzyl)-1H-indol-3-yl]-pyrrolidin-1-yl}-3-phenyl-propenone], the “BTX bond, % inhibition [10 μM]” value was determined as 92%.
Regarding `CCn1cc(C2CCN(C(=O)c3cccc(C)c3C)C2)c2ccccc21` (centres unmarked) [Compound 10, (2,3-dimethyl-phenyl)-[3-(1-ethyl-1H-indol-3-yl)-pyrrolidin-1-yl]-methanone], the “BTX bond, % inhibition [10 μM]” value is 83%.
Same read-out and setting: next, `CCn1cc(C2CCN(C(=O)c3ccc(C(F)(F)F)c(F)c3)C2)c2ccccc21` (centres unmarked) [Compound 9]: 84%; `CCn1cc(C2CCN(C(=O)c3ccc(Cl)c(Cl)c3)C2)c2ccccc21` (centres unmarked) [Compound 15, (3,4-dichloro-phenyl)-[3-(1-ethyl-1H-indol-3-yl)-pyrrolidin-1-yl]-methanone]: 80%; `COc1cccc(Cn2cc(C3CCN(C(=O)CCc4ccccc4)C3)c3ccccc32)c1` (centres unmarked) [Compound 36, 1-{3-[1-(3-methoxy-benzyl)-1H-indol-3-yl]-pyrrolidin-1-yl}-3-phenyl-propan-1-one]: 96%.
Same read-out and setting: to `CCOc1ccccc1C(=O)N1CCC(c2cn(Cc3cccc(OC)c3)c3ccccc23)C1` (centres unmarked) [Compound 8, (2-ethoxy-phenyl)-{3-[1-(3-methoxy-benzyl)-1H-indol-3-yl]-pyrrolidin-1-yl}-methanone] belongs 88%; to `COc1cccc(Cn2cc(C3CCN(C(=O)c4ccc(C)cc4)C3)c3ccccc32)c1` (centres unmarked) [Compound 43, {3-[1-(3-methoxy-benzyl)-1H-indol-3-yl]-pyrrolidin-1-yl}-p-tolyl-methanone], 92%.
Still for that read-out and setting: next, `CCCc1ccc(C(=O)N2CCC(c3cn(Cc4ccc(Br)cc4)c4ccccc34)C2)cc1` (centres unmarked) [Compound 7, {3-[1-(4-bromo-benzyl)-1H-indol-3-yl]-pyrrolidin-1-yl}-(4-propyl-phenyl)-methanone]: 89%; `Cc1cc(C)c(S(=O)(=O)N2CCC(c3cn(CC(=O)N(C)C)c4ccccc34)C2)c(C)c1` (centres unmarked) [Compound 14, N,N-dimethyl-2-{3-[1-(2,4,6-trimethyl-benzenesulphonyl)-pyrrolidin-3-yl]-indol-1-yl}-acetamide]: 80%.

Staying with this assay, now noted: radioligand; mean±SEM, N=3 independent test series; read-out: KD value for this binding site.
“[^3H]-batrachotoxinin A20 α-benzoate [reference compound]”: the dissociation constant Kd (usually a measure of binding affinity in units of concentration) stood at 24.6 ± 1.56 nM.

In another assay the target is T2, serotonin reuptake (5HT uptake) (Rattus norvegicus, UniProt P31652).
T2 construct: These vesicular particles were isolated from the hypothalamus of male rats' brains for 5HT uptake; from tissue; host or cells: rat brain synaptosomes (P2 fraction; cerebral cortex / hypothalamus of male rats)
T2 sequence (P31652 whole entry): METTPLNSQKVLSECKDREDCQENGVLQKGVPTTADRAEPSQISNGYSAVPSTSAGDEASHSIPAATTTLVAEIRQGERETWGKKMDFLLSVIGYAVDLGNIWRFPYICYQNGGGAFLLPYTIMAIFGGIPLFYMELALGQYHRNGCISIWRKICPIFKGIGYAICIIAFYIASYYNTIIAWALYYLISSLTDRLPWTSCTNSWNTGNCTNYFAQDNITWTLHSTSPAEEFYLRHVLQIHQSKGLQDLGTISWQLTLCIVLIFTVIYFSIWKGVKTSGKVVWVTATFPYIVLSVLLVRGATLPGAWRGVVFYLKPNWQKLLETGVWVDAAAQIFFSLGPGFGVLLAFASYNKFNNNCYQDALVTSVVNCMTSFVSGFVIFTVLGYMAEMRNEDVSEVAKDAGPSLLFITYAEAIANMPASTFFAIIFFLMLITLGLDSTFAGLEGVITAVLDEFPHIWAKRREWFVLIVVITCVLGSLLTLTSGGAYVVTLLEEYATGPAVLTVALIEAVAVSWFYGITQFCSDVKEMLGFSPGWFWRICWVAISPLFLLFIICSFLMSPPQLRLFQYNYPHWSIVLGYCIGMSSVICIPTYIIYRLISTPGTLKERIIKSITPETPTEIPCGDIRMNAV
The experiment in a line: Serotonin reuptake inhibition (5HT uptake inhibition) in rat brain synaptosomes. Type of assay: biochemical. The settings on record: synaptosomes from male rats' brains. The source says:
a) Tests on Serotonin Reuptake Inhibition
In order to be able to carry out these in vitro studies, synaptosomes from rats' cerebral cortices were freshly isolated. A “P2” fraction prepared according to Gray and Whittaker's instructions (E. G. Gray and V. P. Whittaker (1962) J. Anat. 76, 79-88) was used in each case. These vesicular particles were isolated from the hypothalamus of male rats' brains for 5HT uptake.
A detailed description of the method may be found in the literature (M. Ch. Frink, H.-H. Hennies, W. Englberger, M. Haurand and B. Wilffert (1996) Arzneim.-Forsch./Drug Res. 46 (III), 11, 1029-1036).
Turning to `CCCCC(=O)N1CCC(c2cn(CC(=O)N(CC)CC)c3ccccc23)C1` (centres unmarked) [Compound 23, N,N-diethyl-2-[3-(1-pentanoyl-pyrrolidin-3-yl)-indol-1-yl]-acetamide], the inhibition (in general, the percentage by which the read-out fell short of the control) at 10 µM was determined as 49%.
Consider `O=C(CN1CCC(c2cn(Cc3ccc(F)c(F)c3)c3ccccc23)C1)Nc1csc(C(F)(F)F)c1-c1ccccc1` (centres unmarked) [Compound 53, 2-{3-[1-(3,4-difluoro-benzyl)-1H-indol-3-yl]-pyrrolidin-1-yl}-N-(4-phenyl-5-trifluiommethyl-thiophen-3-yl)-acetamide], for which the “5HT uptake, % inhibition [10 μM]” value stood at 55%.
In turn, `CN(C)C(=O)Cn1cc(C2CCN(C(=O)c3ccccn3)C2)c2ccccc21` (centres unmarked) [Compound 21, N,N-dimethyl-2-{3-[1-(pyridin-2-carbonyl)-pyrrolidin-3-yl]-indol-1-yl}-acetamide] had an inhibition at 10 µM of 84%.
In turn, `Cc1oc(C(C)(C)C)cc1C(=O)N1CCC(c2cn(Cc3ccccc3C#N)c3ccccc23)C1` (centres unmarked) [Compound 33, 2-{3-[1-(5-tert-butyl-2-methyl-furan-3-carbonyl)pyrrolidin-3-yl]-indol-1-ylmethyl)-benzonitrile] displayed an inhibition at 10 µM of 87%.
Still for that read-out and setting: to `Cn1cc(C2CCN(C(=O)c3c(F)c(F)c(F)c(F)c3F)C2)c2ccccc21` (centres unmarked) [Compound 47, [3-(1-methyl-1H-indol-3-yl)-pyrrolidin-1-yl]-pentafluorophenyl-methanone] belongs 46%.
Same read-out and setting: next, `Cc1cc(C)cc(Cn2cc(C3CCN(CC(=O)Nc4scc(C)c4C#N)C3)c3ccccc32)c1` (centres unmarked) [Compound 50, N-(3-cyano-4-methyl-thiophen-2-yl)-2-{3-[1-(3,5-dimethyl-benzyl)-1H-indol-3-yl]-pyrrolidin-1-yl}acetamide]: 83%.
The same measure, in the same setting: to `O=C(C1CCC1)N1CCC(c2c[nH]c3ccccc23)C1` (centres unmarked) [Compound 22, cyclobutyl-[3-(1H-indol-3-yl)-pyrrolidin-1-yl]-methanone] belongs 58%; to `CN(C)C(=O)Cn1cc(C2CCN(S(=O)(=O)Cc3ccccc3)C2)c2ccccc21` (centres unmarked) [Compound 30, N,N-dimethyl-2-[3-(1-phenylmethanesulphonyl-pyrrolidin-3-yl)-indol-1-yl]-acetamide], 47%.
`COc1ccc(OC)c(CC(=O)N2CCC(c3cn(CC(=O)N(C)C)c4ccccc34)C2)c1` (centres unmarked) [Compound 19, 2-(3-{1-[2-(2,5-dimethoxy-phenyl)-acetyl]-pyrrolidin-3-yl}-indol-1-yl)-N,N-dimethyl-acetamide] gave an inhibition at 10 µM of 86%.
Still for that read-out and setting: next, `Cc1ccc(S(=O)(=O)NC(Cc2ccccc2)C(=O)N2CCC(c3cn(CC(=O)N(C)C)c4ccccc34)C2)cc1` (centres unmarked) [Compound 29, N,N-dimethyl-2-(3-{1-[3-phenyl-2-(toluene-4-sulphonylamino)-propionyl]-pyrrolidin-3-yl)-indol-1-yl)-acetamide]: 63%; `O=C(c1ccccc1Cl)N1CCC(c2c[nH]c3ccccc23)C1` (centres unmarked) [Compound 27, (2-chloro-phenyl)-[3-(1H-indol-3-yl)-pyrrolidin-1-yl]-methanone]: 70%; `CN(C)C(=O)Cn1cc(C2CCN(C(=O)NCc3ccc(Cl)c(Cl)c3)C2)c2ccccc21` (centres unmarked) [Compound 17, 3-(1-dimethylcarbamoylmethyl-1H-indol-3-yl)-pyrrolidine-1-carboxylic acid 3,4-dichloro-benzylamide]: 43%.
The same measure, in the same setting: next, `COc1cccc(Cn2cc(C3CCN(C(=O)CCc4ccccc4)C3)c3ccccc32)c1` (centres unmarked) [Compound 36, 1-{3-[1-(3-methoxy-benzyl)-1H-indol-3-yl]-pyrrolidin-1-yl}-3-phenyl-propan-1-one]: 42%.
The molecule `COc1cccc(Cn2cc(C3CCN(C(=O)c4ccc(C)cc4)C3)c3ccccc32)c1` (centres unmarked) [Compound 43, {3-[1-(3-methoxy-benzyl)-1H-indol-3-yl]-pyrrolidin-1-yl}-p-tolyl-methanone] showed an inhibition at 10 µM of 48%.
Regarding `CCN(CC)C(=O)Cn1cc(C2CCN(C(=O)C3CCCC3)C2)c2ccccc21` (centres unmarked) [Compound 25, 2-1[3-(1-cyclopentanecarbonyl-pyrrolidin-3-yl)-indol-1-yl]-N,N-diethyl acetamide], the “5HT uptake, % inhibition [10 μM]” value came to 80%.
